“Also recorded” adds a separate entry of the source. Bridge positions count the residues as written; N and C are the ends. Ends that are not written are not given here.
Legend:
[1] = molecular target: T1, Recombinant human IL-23R-Fc (Homo sapiens, UniProt Q5VWK5); test: Competitive ELISA, IL-23 binding to IL-23R; details: for IC50: human IL-23 / IL-23R-Fc, read-out: IC50, Competitive ELISA; for inhibition of IL-23 binding to its receptor by modified polypeptides, Competitive ELISA: procedure of Example 6, compared with parent polypeptide
T1 construct: has the protein portion between the 24 amino acid residue to 353 amino acid residue; purchased R&D Systems 1400-IR-050
T1 sequence (Q5VWK5 24-353): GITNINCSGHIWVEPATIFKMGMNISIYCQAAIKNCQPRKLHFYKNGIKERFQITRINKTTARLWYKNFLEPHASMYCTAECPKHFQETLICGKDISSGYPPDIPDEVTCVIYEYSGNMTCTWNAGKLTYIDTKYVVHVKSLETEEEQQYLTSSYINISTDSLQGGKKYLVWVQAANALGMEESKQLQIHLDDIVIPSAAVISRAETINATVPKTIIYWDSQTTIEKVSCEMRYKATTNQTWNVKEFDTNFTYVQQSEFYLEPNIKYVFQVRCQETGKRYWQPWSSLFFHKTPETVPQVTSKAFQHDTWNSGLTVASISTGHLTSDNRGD
Experimental: The novel polypeptides were tested for their ability to inhibit IL-23 using a Competitive ELISA. In such an assay, IL-23R/Fc fusion protein was immobilized on a solid support. In this instance, the solid support was a 96-well plate, but the support may be any support that is typically used for an ELISA. The novel polypeptide and IL-23 were allowed to compete for binding to the immobilized IL-23R/Fc fusion protein. IL-23 that bound to IL-23R-Fc was detected using biotinylated anti-p40 antibody. The bound anti-p40 antibody was detected using streptavidin-horseradish peroxidase (HRP) and a tetramethylbenzidine (TMB) substrate was added to measure peroxidase activity. The color was measured at optical density (OD) 450nm. The color intensity was directly proportional to the amount of the bound IL-23 protein. […] (See, FIG. 16.)
(§1) FIG. 12 is a schematic depiction of the Competitive ELISA. Recombinant human IL-23R-Fc (2 μg/ml) was coated onto microtiter plates as a capture reagent. IL-23 and polypeptides were added to compete for binding to the immobilized IL-23R-Fc. IL-23 that bound to IL-23R-Fc was detected using biotinylated anti-p40 antibody (1:250). The bound anti-p40 antibody was detected using streptavidin-horseradish peroxidase (HRP) (1:500) and 100 μl/well of a tetramethylbenzidine (TMB) substrate was added to measure peroxidase activity. The color was measured at optical density (OD) 450nm. (See, FIG. 12). The color intensity was directly proportional to the amount of the bound IL-23 protein.
as §1, with “Recombinant” for “FIG. 12 is a schematic depiction of the Competitive ELISA. Recombinant”, “IL-23R-Fc. 50 μg human IL-23 (Cat. No. HZ-1048) (Humanzyme, Chicago, Ill.) in the presence or absence of 100 μM peptides was added to the well and incubated at 4° C. overnight.” for “IL-23R-Fc.”, “450nm.” for “450nm. (See, FIG. 12).”

[2] = Solubility of synthetic polypeptides (precipitate in assay); type: physicochemical; details: under Competitive ELISA conditions
[3] = molecular target: T2, IL-23R pathway in STAT3-Luc reporter DB cells (Homo sapiens, UniProt Q5VWK5); test: STAT3-Luc reporter DB cells stimulated with IL-23 cytokines; type: cell-based
Experimental: In Example 29 (above), we detailed the development of stably transfected STAT3-Luc reporter clone. […] The stably transfected STAT3-Luc reporter DB cells (0.5×10^6 cells) were cultured in 100 μl of RPMI+10% FBS. Recombinant IL-23 (Humanzyme) or isolated IL-23 (WT or W5) was added to the cells and incubated at 37° C. for 4 hours. Luciferase activity was measured using Dual-Glo luciferase assay system (Promega).
The reporter luciferase activity increased by approximately 10 folds. Isolated WT IL-23 cytokine at different concentrations (50,000, 5,000, 500 and 50 ng/ml) was added to stimulate these stable cells. […] At the concentration of 50 ng/ml, the isolated WT IL-23 cytokine stimulates the IL-23R pathway as good as the recombinant IL-23 cytokine from Humazyme.

IL-23R deletion proteins [4] = test: Immunoprecipitation with FLAG-tagged IL-23R deletion proteins; type: binding; details: 200 ng, anti-FLAG M2 immunoprecipitation, Western blot
Experimental: (§2) In this study, we examined which regions of IL-23R proteins were required for the binding to IL-23 and polypeptide no. 23.15-fc fusion protein. To do so, we generated a series of IL-23R deletion proteins as illustrated in the FIG. 48.
(§3) Culture media from 293T cells transfected with different FLAG-tagged IL-23R deletion constructs were incubated with 200 ng of either IL-23 or polypeptide no. 23.15-fc fusion protein, then immunoprecipitated with anti-FLAG M2 affinity gel. The immunoprecipitate was subjected to Western blotting and polypeptide no. 23.15-Fc fusion protein or IL-23 was visualized with either anti-mouse IgG or anti-hIL-12/23p40 respectively. IL-23 or polypeptide no. […] 23.15-fc fusion protein (FIG. 48).

IL-23R deletion proteins [5] = molecular target: T3, IL-23R deletion proteins (Homo sapiens, UniProt Q5VWK5); test: as above; type: binding; details: 200 ng, anti-FLAG M2 immunoprecipitation, Western blot
T3 construct: made in house; host or cells: 293T cells (culture media)
T3 sequence (Q5VWK5 24-200): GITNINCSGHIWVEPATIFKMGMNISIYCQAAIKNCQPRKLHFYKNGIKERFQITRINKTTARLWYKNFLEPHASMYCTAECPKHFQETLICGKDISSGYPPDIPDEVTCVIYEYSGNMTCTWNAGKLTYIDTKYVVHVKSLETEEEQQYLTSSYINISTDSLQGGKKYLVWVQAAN
Experimental: as §2, §3

[6] = molecular target: T2, IL-23R pathway in STAT3-Luc reporter DB cells; test: Cell-based STAT3-Luc reporter DB cell assay (DB-Luc), inhibition of IL-23; details: cyclic vs linear peptides
Experimental: (§4) The Cignal STAT3 reporter (SA Biosciences, CCS-9028L), designed to measure the transcriptional activity of STAT3 homodimers, was transiently transfected into the DB cells. The stably transfected STAT3-Luc reporter clone was selected using 200 ng/ml of Hygromycin B.
The stably transfected STAT3-Luc reporter DB cells (0.5×10^6) were cultured in 100 μl of RPMI+10% FBS. IL-23 was added to the cells and incubated at 37° C. for 4 hours. Luciferase activity was measured using Dual-Glo luciferase assay system (Promega).
The isolated cyclic polypeptide no. 23.15-Fc fusion protein and cyclic polypeptide no. 23.19 were used in a cell-based assay to measure the IC50 values. The stably transfected STAT3-Luc reporter DB cells (0.5×10^6) were cultured in 100 μl of RPMI+10% FBS. The cells were pre-incubated with different concentration of isolated cyclic polypeptide no. 23.15-Fc fusion protein or polypeptide no. 23.19 for 30 minutes at 37° C. 50 ng/ml of IL-23 was added to the cells and incubated at 37° C. for an additional 4 hours. Luciferase activity was measured using Dual-Glo luciferase assay system (Promega). The IC50 values of isolated cyclic polypeptide no. 23.15-Fc fusion protein and cyclic polypeptide no. 23.19 are 2.5 μM and 2.5 μM respectively.
The isolated peptide no. 7 (SEQ ID NO: 156) and peptide no. 23.19 (SEQ ID NO: 130) (it is a cyclic version of the polypeptide no. 23.15) were used in a cell based assay to compare their inhibitory activity. The stably transfected STAT3-Luc reporter DB cells (0.5×10^6) were cultured in 100 μl of RPMI+10% FBS. The cells were pre-incubated with two different concentrations (10 μM and 2 μM) of isolated peptides for 30 minutes at 37° C. 50 ng/ml of IL-23 was added to the cells and incubated at 37° C. for an additional 4 hours. Luciferase activity was measured using Dual-Glo luciferase assay system (Promega). The inhibitory activity of isolated peptide no. 7 (SEQ ID NO: 156) is better than that of peptide no. 23.19 (SEQ ID NO: 130) (a cyclic version of polypeptide no. 23.15 (SEQ ID NO: 126) (See, FIG. 62).
DB cells express IL-23R on the cell surface. In addition, IL-23 stimulated the DB cells through the activation of STAT3 by phosphorylation (p-STAT3) (Example 7 (Figures. 14 and 15)). Based on these observations, DB cells were used to develop a cell-based assay to measure the inhibitory activity of peptide and peptide-Fc fusion protein in the IL-23R pathway. […]
as §4, with “CCS-9028L), which is” for “CCS-9028L),”, “B. The activity of IL-23R pathway can be measured by the transcriptional activity of STAT3 homodimers. […]” for “B.”

DDWMQYWRQQVR [compound 27] gave an IC50 [1] of about 1.56 µM.
With AMTWEDWWLYGR [compound 23] the IC50 [1] was under 1.56 µM.
With NWATYWQLRHQT [compound 9] the “inhibitory activity in Competitive ELISA in relation to polypeptide no. 1” value ([1]; 50 μM polypeptide, 30 ng/ml IL-23) was “significant and better inhibitory activity compared to peptide number 1; also recorded: inhibited IL-23 binding more than polypeptide no. 1” and the IC50 [1] was about 3 µM.
For ASWVQYWVQ [1.4], the solubility [2] was “formed a precipitate”.
For SGWWWVQYWVQR [1.20], the solubility [2] was “insoluble”.
For “WT: IL-23 cytokine with wild type p19 subunit, expressed in 293T cells”, the “stimulation of STAT3 reporter activity” value ([3]; 50,000, 5,000, 500 and 50 ng/ml) was “stimulates the STAT3 activity in a dose-dependent manner”.
For “IL-23: heterodimeric cytokine of p19 and p40 subunits; recombinant from Humanzyme”, the “binding to IL-23R deletion proteins 1-348, 1-318 or 1-250” value (IL-23R deletion proteins [4]) was “detected in the precipitate”, the “binding to IL-23R deletion protein 1-200” value (IL-23R deletion proteins [5]) was “failed to bind” and the “increase of reporter luciferase activity” value ([3]; 50 ng/ml) was “approximately 10 folds”.
With SGASWVQFWVQR [1.17] the solubility [2] was “formed a precipitate”.
With SGASWVQYWWWR [1.21] the solubility [2] was “insoluble”.
For SGAWWVQYWVQR [1.18], the solubility [2] was “insoluble”.
For CSCC[C@H](NC(=O)[C@H](C)N)C(=O)N[C@H](C(=O)N[C@@H](Cc1c[nH]c2ccccc12)C(=O)N[C@@H](CCC(N)=O)C(=O)N[C@@H](CC(=O)O)C(=O)N[C@@H](Cc1ccc(O)cc1)C(=O)N[C@@H](Cc1c[nH]c2ccccc12)C(=O)N[C@@H](CC(C)C)C(=O)N[C@@H](Cc1ccc(O)cc1)C(=O)NCC(=O)N[C@@H](CCCNC(=N)N)C(=O)O)[C@@H](C)O [23.15], the “inhibition of IL-23 binding to its receptor by modified polypeptides, Competitive ELISA” value (“inhibition of IL-23 binding” for short) [1] was “at least as effective”.
With “7HT AA (AMKTWVDYWLETQA; head-to-tail cyclic; listed as Homo sapiens)” the “inhibition of IL-23 binding” value [1] was “did not abrogate the polypeptides' ability” and the “inhibitory activity in cell-based DB-Luc assay” value [6] was “did not eliminate the inhibitory activity”.
For “7 CC (CMKTWVDYWLETQC; disulfide 1-14 (inferred); listed as Homo sapiens)”, the “inhibition of IL-23 binding” value [1] was “did not abrogate the polypeptides' ability”.
Compound SGASWVQYWVQR [Polypeptide no. 1] has an IC50 [1] of 6.25 to 12.5 µM.
